According to patent US20240261297A1, “ANTI-CDK INHIBITORS FOR CANCER TREATMENT” (St. John's Cancer Institute, priority 2021, published 2024):
Like-named read-outs stand apart in the source and are kept apart here. One block for each compound: values may come before it.

Legend:
CDK2/cyclin E = CDK2/cyclin E (Homo sapiens, UniProt P24941); assay: Radioisotope-based protein kinase assay; type: biochemical; details: 10 μM ATP, 3-fold dilution from 10 μM
Procedure: (§1) A series of test compounds were selected for initial screening against CDK isoforms. Protein kinase assays were performed with gold standard radioisotope-based assay formats to measuring enzyme activity remaining in presence and absence of inhibitor.

CDK1/cyclin B = CDK1/cyclin B (Homo sapiens, UniProt P06493); assay: Radioisotope-based protein kinase assay; type: biochemical; details: 10 μM ATP, 3-fold dilution from 10 μM
Chain of CDK1/cyclin B (P06493 whole entry): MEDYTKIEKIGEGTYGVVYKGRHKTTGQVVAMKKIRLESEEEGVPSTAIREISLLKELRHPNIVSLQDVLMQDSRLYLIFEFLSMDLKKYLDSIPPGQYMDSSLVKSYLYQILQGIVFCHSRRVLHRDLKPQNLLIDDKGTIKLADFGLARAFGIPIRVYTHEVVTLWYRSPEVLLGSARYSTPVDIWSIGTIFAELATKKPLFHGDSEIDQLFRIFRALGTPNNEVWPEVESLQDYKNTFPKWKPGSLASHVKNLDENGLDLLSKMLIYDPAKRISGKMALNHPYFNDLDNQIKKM
Chain of CDK1/cyclin B (P14635 whole entry partner): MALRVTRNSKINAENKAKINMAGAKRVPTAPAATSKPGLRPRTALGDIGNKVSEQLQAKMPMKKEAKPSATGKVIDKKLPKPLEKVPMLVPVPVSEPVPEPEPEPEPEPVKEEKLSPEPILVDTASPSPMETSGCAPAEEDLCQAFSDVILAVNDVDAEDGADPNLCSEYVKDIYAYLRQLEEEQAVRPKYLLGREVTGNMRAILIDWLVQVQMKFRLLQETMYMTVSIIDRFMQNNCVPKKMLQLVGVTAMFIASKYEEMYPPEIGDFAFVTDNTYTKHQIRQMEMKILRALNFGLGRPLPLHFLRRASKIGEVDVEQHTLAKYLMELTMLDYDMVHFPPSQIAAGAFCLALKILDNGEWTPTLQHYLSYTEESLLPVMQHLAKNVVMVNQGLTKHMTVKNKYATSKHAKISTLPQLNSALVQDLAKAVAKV
Procedure: as §1

[1] = Snapshot plasma pharmacokinetics in mice; type: in vivo
Procedure: Evaluation of pharmacokinetic (PK) parameters and efficacy of I-3 in a xenograft model was carried out in mice. […] Briefly, mice were treated with 5 mg/kg of 1-3 or merioline-3. Plasma was then collected at different time points and measured for drug concentration. […] PK parameters of I-3 was also compared to a panel of CDK inhibitors (Table 13). […] Likewise, Ribociclib has a better Cmax than I-3, but it is primarily a CDK4/6 inhibitor.

CDK1/cyclin A = CDK1/cyclin A (Homo sapiens, UniProt P06493); assay: Radioisotope-based protein kinase assay; type: biochemical; details: 10 μM ATP, 3-fold dilution from 10 μM
Procedure: as §1

CDK2/cyclin A = CDK2/cyclin A (Homo sapiens, UniProt P24941); assay: Radioisotope-based protein kinase assay; type: biochemical; details: 10 μM ATP, 3-fold dilution from 10 μM
Procedure: as §1

CDK6/cyclin D1 = CDK6/cyclin D1 (Homo sapiens, UniProt Q00534); assay: Radioisotope-based protein kinase assay; type: biochemical; details: 10 μM ATP, 3-fold dilution from 10 μM
Chain of CDK6/cyclin D1 (Q00534 whole entry): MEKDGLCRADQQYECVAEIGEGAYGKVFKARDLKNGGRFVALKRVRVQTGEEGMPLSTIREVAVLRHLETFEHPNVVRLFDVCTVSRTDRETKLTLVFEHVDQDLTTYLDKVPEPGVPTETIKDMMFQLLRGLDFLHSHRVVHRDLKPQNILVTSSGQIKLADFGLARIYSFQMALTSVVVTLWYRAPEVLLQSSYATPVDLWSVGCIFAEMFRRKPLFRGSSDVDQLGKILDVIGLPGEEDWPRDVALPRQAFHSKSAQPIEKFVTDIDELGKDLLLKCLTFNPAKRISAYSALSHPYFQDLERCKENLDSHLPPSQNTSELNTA
Chain of CDK6/cyclin D1 (P24385 whole entry partner): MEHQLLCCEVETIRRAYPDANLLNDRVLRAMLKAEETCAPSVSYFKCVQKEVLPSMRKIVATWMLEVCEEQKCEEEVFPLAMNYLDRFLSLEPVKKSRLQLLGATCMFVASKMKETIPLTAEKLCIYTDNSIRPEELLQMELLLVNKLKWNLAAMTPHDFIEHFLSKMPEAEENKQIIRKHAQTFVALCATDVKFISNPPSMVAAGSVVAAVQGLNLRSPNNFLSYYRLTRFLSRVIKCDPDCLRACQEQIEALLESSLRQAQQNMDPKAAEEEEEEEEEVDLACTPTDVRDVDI
Procedure: as §1

CDK9/cyclin T1 = CDK9/cyclin T1 (Homo sapiens, UniProt P50750); assay: Radioisotope-based protein kinase assay; type: biochemical; details: 10 μM ATP, 3-fold dilution from 10 μM
Chain of CDK9/cyclin T1 (P50750 whole entry): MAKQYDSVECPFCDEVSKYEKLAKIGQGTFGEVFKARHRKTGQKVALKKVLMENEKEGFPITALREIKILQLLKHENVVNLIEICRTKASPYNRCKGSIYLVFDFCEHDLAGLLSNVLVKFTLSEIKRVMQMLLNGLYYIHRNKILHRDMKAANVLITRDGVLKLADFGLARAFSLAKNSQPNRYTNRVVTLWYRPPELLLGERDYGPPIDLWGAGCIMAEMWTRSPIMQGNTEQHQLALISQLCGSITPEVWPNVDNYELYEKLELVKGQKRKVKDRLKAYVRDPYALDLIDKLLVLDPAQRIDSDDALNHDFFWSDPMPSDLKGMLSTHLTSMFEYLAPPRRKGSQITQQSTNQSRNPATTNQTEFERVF
Chain of CDK9/cyclin T1 (O60563 whole entry partner): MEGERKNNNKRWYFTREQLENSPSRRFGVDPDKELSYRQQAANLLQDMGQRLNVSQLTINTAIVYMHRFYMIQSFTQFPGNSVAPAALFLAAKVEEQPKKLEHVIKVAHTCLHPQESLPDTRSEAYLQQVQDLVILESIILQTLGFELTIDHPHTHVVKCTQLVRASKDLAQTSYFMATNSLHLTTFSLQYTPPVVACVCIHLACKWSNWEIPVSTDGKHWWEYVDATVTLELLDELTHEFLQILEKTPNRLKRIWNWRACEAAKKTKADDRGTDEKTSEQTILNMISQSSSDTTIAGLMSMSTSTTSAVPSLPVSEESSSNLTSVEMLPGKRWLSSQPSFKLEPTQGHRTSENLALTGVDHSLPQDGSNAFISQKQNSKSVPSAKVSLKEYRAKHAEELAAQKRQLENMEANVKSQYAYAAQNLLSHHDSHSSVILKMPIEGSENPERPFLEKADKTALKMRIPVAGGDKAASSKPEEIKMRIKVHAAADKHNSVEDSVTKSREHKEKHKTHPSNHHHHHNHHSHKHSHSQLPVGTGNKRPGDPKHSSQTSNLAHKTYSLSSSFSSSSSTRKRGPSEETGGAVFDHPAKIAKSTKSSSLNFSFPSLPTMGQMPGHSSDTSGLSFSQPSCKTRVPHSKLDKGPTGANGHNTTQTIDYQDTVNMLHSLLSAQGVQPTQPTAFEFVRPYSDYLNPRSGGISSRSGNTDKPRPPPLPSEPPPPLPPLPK
Procedure: as §1

CDK4/cyclin D1 = CDK4/cyclin D1 (Homo sapiens, UniProt P11802); assay: Radioisotope-based protein kinase assay; type: biochemical; details: 10 μM ATP, 3-fold dilution from 10 μM
Chain of CDK4/cyclin D1 (P11802 whole entry): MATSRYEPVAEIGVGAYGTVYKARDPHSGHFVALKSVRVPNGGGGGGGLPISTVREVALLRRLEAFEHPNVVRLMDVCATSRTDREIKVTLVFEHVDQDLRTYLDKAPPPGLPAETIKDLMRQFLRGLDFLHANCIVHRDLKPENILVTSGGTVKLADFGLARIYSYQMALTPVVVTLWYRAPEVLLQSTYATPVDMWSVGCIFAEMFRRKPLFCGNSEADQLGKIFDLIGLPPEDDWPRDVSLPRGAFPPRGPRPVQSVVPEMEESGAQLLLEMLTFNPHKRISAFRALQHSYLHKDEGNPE
Chain of CDK4/cyclin D1 (P24385 whole entry partner): as the sequence (P24385 whole entry partner) above
Procedure: as §1

PLC/PRF/5 cells = assay: Cell viability of HCC cells by CellTiter Glo assay; type: cell-based; details: 72 hours
Procedure: FIG. 5 is a graph showing cell viability of hepatocellular carcinoma (HCC) cell lines treated with I-3 for 72 hours, assessed by CellTiter Glo assay, with the control level of cells considered 100%.
I-3 was also tested for efficacy on hepatocellular carcinoma (HCC) cell lines. Cell viability was measured by CellTiter Glo assay (FIG. 5 and Table 8).

CDK5/p35 = CDK5/p35 (Homo sapiens, UniProt Q00535); assay: Radioisotope-based protein kinase assay; type: biochemical; details: Table 2
Chain of CDK5/p35 (Q00535 whole entry): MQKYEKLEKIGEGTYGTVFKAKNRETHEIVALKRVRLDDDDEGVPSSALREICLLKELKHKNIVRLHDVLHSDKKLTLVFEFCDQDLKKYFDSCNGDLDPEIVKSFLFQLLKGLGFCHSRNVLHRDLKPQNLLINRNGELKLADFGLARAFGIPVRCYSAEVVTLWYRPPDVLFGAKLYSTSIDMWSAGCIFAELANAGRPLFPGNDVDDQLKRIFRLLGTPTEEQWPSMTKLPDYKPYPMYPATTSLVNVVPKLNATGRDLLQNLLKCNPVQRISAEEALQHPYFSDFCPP
Chain of CDK5/p35 (Q15078 whole entry partner): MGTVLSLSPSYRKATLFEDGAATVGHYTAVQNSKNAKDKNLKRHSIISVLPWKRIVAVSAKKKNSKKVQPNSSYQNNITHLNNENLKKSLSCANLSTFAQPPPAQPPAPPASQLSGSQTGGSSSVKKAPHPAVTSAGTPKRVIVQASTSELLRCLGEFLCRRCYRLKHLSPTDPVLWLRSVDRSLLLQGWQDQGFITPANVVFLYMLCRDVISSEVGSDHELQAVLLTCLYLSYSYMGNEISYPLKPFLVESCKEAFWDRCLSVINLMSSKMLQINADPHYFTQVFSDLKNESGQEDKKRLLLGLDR
Procedure: as §1
The activity of compound I-3 was compared to that of a panel of CDKs and their respective binding partners (Tables 2 and 3).

CKD9/Cyclin H = CKD9/Cyclin H (Homo sapiens, UniProt P50750); assay: Biochemical profile against CDKs and binding partners (Table 3)
Chain of CKD9/Cyclin H (P50750 whole entry): as the sequence (P50750 whole entry) above
Procedure: as §1

CDK7/cyclin H = CDK7/cyclin H (Homo sapiens, UniProt P50613); assay: Radioisotope-based protein kinase assay; type: biochemical; details: 10 μM ATP, 3-fold dilution from 10 μM
Chain of CDK7/cyclin H (P50613 whole entry): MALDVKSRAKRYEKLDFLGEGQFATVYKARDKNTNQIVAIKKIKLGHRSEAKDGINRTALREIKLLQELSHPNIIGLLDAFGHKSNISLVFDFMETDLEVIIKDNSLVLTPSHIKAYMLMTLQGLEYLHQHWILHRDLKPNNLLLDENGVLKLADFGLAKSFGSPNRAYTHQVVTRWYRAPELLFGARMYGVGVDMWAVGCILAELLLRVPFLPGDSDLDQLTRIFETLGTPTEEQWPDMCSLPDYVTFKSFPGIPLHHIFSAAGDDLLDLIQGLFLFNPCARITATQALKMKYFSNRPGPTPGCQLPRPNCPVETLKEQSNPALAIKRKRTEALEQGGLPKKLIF
Chain of CDK7/cyclin H (P51946 whole entry partner): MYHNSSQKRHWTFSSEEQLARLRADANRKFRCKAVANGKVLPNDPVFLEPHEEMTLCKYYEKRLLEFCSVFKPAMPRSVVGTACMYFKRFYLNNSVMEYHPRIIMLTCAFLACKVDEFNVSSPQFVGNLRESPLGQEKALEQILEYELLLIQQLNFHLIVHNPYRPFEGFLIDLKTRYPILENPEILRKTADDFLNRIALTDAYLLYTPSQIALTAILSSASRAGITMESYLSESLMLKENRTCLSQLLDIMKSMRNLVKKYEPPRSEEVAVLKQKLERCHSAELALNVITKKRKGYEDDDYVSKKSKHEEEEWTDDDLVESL
Chain of CDK7/cyclin H (P51948 whole entry partner): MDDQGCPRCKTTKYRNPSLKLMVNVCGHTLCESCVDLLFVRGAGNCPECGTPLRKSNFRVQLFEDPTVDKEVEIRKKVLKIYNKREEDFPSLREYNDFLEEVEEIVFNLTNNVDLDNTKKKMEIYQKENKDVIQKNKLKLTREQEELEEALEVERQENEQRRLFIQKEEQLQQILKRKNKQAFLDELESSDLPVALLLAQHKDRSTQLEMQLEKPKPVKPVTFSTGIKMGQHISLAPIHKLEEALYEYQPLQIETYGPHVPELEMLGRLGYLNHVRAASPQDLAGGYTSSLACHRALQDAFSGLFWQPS
Procedure: as §1

MCF-10A = assay: Cell viability in breast cell lines; type: cell-based; details: MCF-10A, 72 hours, Table 6, read-out: Cell viability by CellTiter Glo IC50
Description: (§2) Tables 5 and 6 show assessment of in vitro efficacy of I-3 in a panel of breast cancer cell lines.

MDA-MB-468 = assay: Cell viability in breast cancer cell lines; type: cell-based; details: MDA-MB-468, 72 hours, Table 6, read-out: Cell viability by CellTiter Glo IC50
Description: as §2

[2] = test system: caspase 3/7 in MDA-MB-468 cells; assay: Caspase Glo 3/7 activity assay in MDA-MB-468 cells; type: cell-based; details: 24 hours
Procedure: Further anti-proliferative effect of 1-3 was evaluated in the TNBC cell line MDA-MB-468 based on biomarker (CDK2) inhibition. […] The mechanistic cell cycle block is aligned with biomarker. In addition, Caspase Glo 3/7 activation was tested to confirm the sub-G1 (apoptotic) arrest in cell cycle.

[3] = test system: caspase 3/7 in PLC/PRF/5 cells; assay: Caspase Glo 3/7 activity assay in PLC/PRF/5 cells; type: cell-based
[4] = PO 5 mg/kg, cassette dosing, plasma

IC50 (CDK1/cyclin A): 4 nM | IC50 (CDK2/cyclin A): 5 nM | IC50 (CDK6/cyclin D1): 196 nM | IC50 (CDK9/cyclin T1): 3 nM
Compound: Nc1nccc(-c2c[nH]c3nccc(Oc4ccc(F)cc4)c23)n1 [I-6, 4-(4-(4-fluorophenoxy)-1H-pyrrolo[2,3-b]pyridin-3-yl)pyrimidin-2-amine]

IC50 (CDK2/cyclin E): 2 nM | IC50 (CDK1/cyclin A): 3 nM | IC50 (CDK2/cyclin A): 3 nM | IC50 (CDK1/cyclin B): 4 nM | IC50 (CDK4/cyclin D1): 259 nM | IC50 (CDK6/cyclin D1): 138 nM
Compound: Nc1nccc(-c2c[nH]c3nccc(Oc4ccccc4)c23)n1 [I-1, 4-(4-phenoxy-1H-pyrrolo[2,3-b]pyridin-3-yl)pyrimidin-2-amine]

IC50 (CDK2/cyclin E): 27 nM | IC50 (CDK9/cyclin T1): 16 nM | IC50 (CDK7/cyclin H): 43 nM
Compound: Nc1nccc(-c2c[nH]c3nccc(Oc4cccc(C(F)(F)F)c4)c23)n1 [I-5, 4-(4-(3-(trifluoromethyl)phenoxy)-1H-pyrrolo[2,3-b]pyridin-3-yl)pyrimidin-2-amine]

IC50 (CDK2/cyclin E): 2 nM | IC50 (CDK1/cyclin B): 7 nM | IC50 (CDK4/cyclin D1): 462 nM
Compound: Nc1nccc(-c2c[nH]c3nccc(Oc4cc(F)cc(F)c4)c23)n1 [I-4, 4-(4-(3,5-difluorophenoxy)-1H-pyrrolo[2,3-b]pyridin-3-yl)pyrimidin-2-amine]

IC50 (CDK2/cyclin E): 8 nM | IC50 (CDK1/cyclin A): 11 nM | IC50 (CDK2/cyclin A): 9 nM | IC50 (CDK1/cyclin B): 16 nM | IC50 (CDK4/cyclin D1): 875 nM | IC50 (CDK6/cyclin D1): 819 nM
Compound: Nc1nccc(-c2c[nH]c3nccc(Oc4cccc(Cl)c4)c23)n1 [I-2, 4-(4-(3-chlorophenoxy)-1H-pyrrolo[2,3-b]pyridin-3-yl)pyrimidin-2-amine]

The remaining lines, values behind:

Compound: CNC(=O)c1nn(C)c2c1C(C)(C)Cc1cnc(Nc3ccc(N4CCN(C)CC4)cc3)nc1-2 [Milciclib]
IC50 (CDK2/cyclin E): 363 nM | IC50 (CDK1/cyclin B): 398 nM | Tmax ([1]; mouse, in vivo): 3.5 h | AUC(0-inf) ([1]; mouse, in vivo, AUCinf): 2980 ng·h/mL | Cmax ([1]; mouse, in vivo, Cmax): 537 ng/mL

Compound: CN(C)C(=O)c1cc2cnc(Nc3ccc(N4CCNCC4)cn3)nc2n1C1CCCC1 [Ribociclib]
Tmax ([1]; mouse, in vivo): 5.7 h | AUC(0-inf) ([1]; mouse, in vivo, AUCinf): 2780 ng·h/mL | Cmax ([1]; mouse, in vivo, Cmax): 303 ng/mL

Compound: CNC(=O)c1cc(Oc2ccc(NC(=O)Nc3ccc(Cl)c(C(F)(F)F)c3)cc2)ccn1 [Sorafenib]
IC50 (PLC/PRF/5 cells; Homo sapiens): 6300 nM

Compound: Merioline-3
IC50 (CDK2/cyclin E): 2 nM | IC50 (CDK1/cyclin A): 5 nM | IC50 (CDK2/cyclin A): 3 nM | IC50 (CDK1/cyclin B): 7 nM | IC50 (CDK4/cyclin D1): 182 nM | IC50 (CDK6/cyclin D1): 130 nM | IC50 (CDK9/cyclin T1): 2 nM | IC50 (CDK5/p35): 3 nM | Cmax [1, 4]: 178 ng/mL | AUCinf ([1]; mice, IV 5 mg/kg, plasma): 83,600 min*ng/mL | Cmax ([1]; mice, IV 5 mg/kg, plasma): 5560 ng/mL | T1/2 ([1]; mice, IV 5 mg/kg, plasma): 0.124 h | Tmax ([1]; mice, IV 5 mg/kg, plasma): 0.0833 h | AUCinf ([1]; mice, PO 5 mg/kg, plasma): 4340 ng·min/mL | Cmax ([1]; mice, PO 5 mg/kg, plasma): 483 ng/mL | Tmax ([1]; mice, PO 5 mg/kg, plasma): 1 h | IC50 (CKD9/Cyclin H): 2 nM

Compound: CC(=O)c1c(C)c2cnc(Nc3ccc(N4CCNCC4)cn3)nc2n(C2CCCC2)c1=O [Palbociclib]
AUC(0-inf) ([1]; mouse, plasma, oral, 5 mg/kg, in vivo PK comparison of CDK inhibitors, Table 13, read-out: AUCinf): 641 ng·h/mL | Cmax ([1]; mouse, plasma, oral, 5 mg/kg, in vivo PK comparison of CDK inhibitors, Table 13, read-out: Cmax): 196 ng/mL | Tmax ([1]; mouse, plasma, oral, 5 mg/kg, in vivo PK comparison of CDK inhibitors, Table 13, read-out: Tmax): 2.1 h

Compound: CCN1CCN(Cc2ccc(Nc3ncc(F)c(-c4cc(F)c5nc(C)n(C(C)C)c5c4)n3)nc2)CC1 [Abemaciclib]
Tmax ([1]; mouse, in vivo): 5.5 h | AUC(0-inf) ([1]; mouse, in vivo, AUCinf): 613 ng·h/mL | Cmax ([1]; mouse, in vivo, Cmax): 107 ng/mL

Compound: CC[C@H](Nc1nc(NCc2cnc(C)cc2C)c2ncn(C(C)C)c2n1)[C@@H](C)O [CYC065, reference compound]
IC50 (CDK2/cyclin E): 5 nM | IC50 (CDK1/cyclin B): 578 nM | IC50 (CDK4/cyclin D1): 21 nM | IC50 (MCF-10A; Homo sapiens): 400 nM | IC50 (MDA-MB-468; Homo sapiens): 380 nM

Compound: C[C@@]1(O)CCC[C@H]1n1c(=O)c(C(F)F)cc2cnc(NC3CCN(S(C)(=O)=O)CC3)nc21 [PF-06873600, reference compound]
Caspase 3/7 activation [2]: no caspase 3/7 activation | IC50 [2]: 5660 nM | IC50 (PLC/PRF/5 cells): 3480 nM | Cmax [1, 4]: 196 ng/mL | T1/2 [1, 4]: 2.1 h | IC50 (MCF-10A): 660 nM | IC50 (CKD9/Cyclin H): 43 nM | IC50 (MDA-MB-468): 65 nM | IC50 [3]: 3560 nM
